Measured values as given in US12180187B2, “1-phenyl-5-azinylpyrazolyl-3-oxyalkyl acids and their use for controlling unwanted plant growth” (BAYER AKTIENGESELLSCHAFT, priority 2019, dated 2024).

Key:
ECHCG [1] = assay: Post-emergence action at 320 g/ha against ECHCG; format: in vivo, Echinochloa crus-galli; settings: dosage 320 g/ha, visual rating about 3 weeks after treatment vs untreated controls (100% = plants died)
Method in brief: (§1)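 Sow in sandy loam → greenhouse growth 2–3 wk → spray at one-leaf stage (WP/EC, aqueous, +0.5% additive, 600 l/ha) → hold ~3 wk under optimum conditions → visual rating, 0–100% relative to untreated.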

ABUTH [2] = assay: Post-emergence action at 320 g/ha against ABUTH; format: in vivo, Abutilon theophrasti; settings: visual rating about 3 weeks after treatment vs untreated controls
Method in brief: as §1

DIGSA = assay: Post-emergence action at 320 g/ha against DIGSA; format: in vivo, Digitaria sanguinalis; settings: dosage 320 g/ha, visual rating about 3 weeks after treatment vs untreated controls (100% = plants died); for pest or weed control at 320 g/ha: Digitaria sanguinalis, 504 h
Method in brief: as §1

MATIN = assay: Pre-emergence action at 320 g/ha against MATIN; format: in vivo, Tripleurospermum inodorum (Matricaria inodora); settings: visual scoring after about 3 weeks vs untreated controls; for pest or weed control at 320 g/ha: Tripleurospermum inodorum, 504 h
Method in brief: (§2)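 Sow seeds, cover with soil, spray soil surface (WP/EC, 0.5% additive, 600 l/ha water), hold in greenhouse ~3 wk, then rate % activity visually against untreated controls.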

POLCO = assay: Post-emergence action at 320 g/ha against POLCO; format: in vivo, Fallopia convolvulus (Polygonum convolvulus); settings: visual rating about 3 weeks after treatment vs untreated controls; for pest or weed control at 320 g/ha: Fallopia convolvulus, 504 h
Method in brief: as §1

AMARE [3] = assay: Post-emergence action at 320 g/ha against AMARE; format: in vivo, Amaranthus retroflexus; settings: visual rating about 3 weeks after treatment vs untreated controls; for pest or weed control at 320 g/ha: Amaranthus retroflexus, 504 h
Method in brief: as §1

VERPE = assay: Pre-emergence action at 320 g/ha against VERPE; format: in vivo, Veronica persica; settings: visual scoring after about 3 weeks vs untreated controls; for pest or weed control at 320 g/ha: Veronica persica, 504 h
Method in brief: as §2

ECHGC = assay: Pre-emergence action at 320 g/ha against ECHGC; format: in vivo, Echinochloa crus-galli; settings: visual scoring after about 3 weeks vs untreated controls
Method in brief: as §2

AMARE [4] = assay: Post-emergence action against AMARE, 1.28 kg/ha; format: in vivo, Amaranthus retroflexus; settings: dosage 1280 g/ha, visual rating about 3 weeks after treatment vs untreated controls (100% = plants died)
Method in brief: (§3)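 Herbicidal action is estimated by eye after about three weeks under optimum greenhouse conditions, on a 0–100% scale against untreated plants. Compounds are applied post-emergence to one-leaf-stage weeds as aqueous WP or EC preparations containing 0.5% additive, sprayed at 600 L/ha.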

VIOTR = assay: Pre-emergence action at 320 g/ha against VIOTR; format: in vivo, Viola tricolor; settings: dosage 320 g/ha; for pest or weed control at 320 g/ha: Viola tricolor, 504 h
Method in brief: as §2

PHBPU = assay: Post-emergence action at 320 g/ha against PHBPU; format: in vivo; settings: visual rating about 3 weeks after treatment vs untreated controls
Method in brief: as §1

SETVI = assay: Post-emergence action against SETVI, 1.28 kg/ha; format: in vivo, Setaria viridis; settings: dosage 1280 g/ha, visual rating about 3 weeks after treatment vs untreated controls
Method in brief: as §3

ECHCG [5] = assay: Post-emergence action against ECHCG, 1.28 kg/ha; format: in vivo, Echinochloa crus-galli; settings: dosage 1280 g/ha, visual rating about 3 weeks after treatment vs untreated controls
Method in brief: as §3

STEME = assay: Post-emergence action against STEME, 1.28 kg/ha; format: in vivo, Stellaria media; settings: dosage 1280 g/ha, visual rating about 3 weeks after treatment vs untreated controls (100% = plants died)
Method in brief: as §3

ABUTH [6] = assay: Pre-emergence action against ABUTH, 1280 g/ha; format: in vivo, Abutilon theophrasti; settings: scored visually after about 3 weeks vs untreated controls (100% = plants have died)
Method in brief: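 Visual % scoring, roughly 3 weeks post-application, against untreated controls; 100% means plants died. Treatment went onto the soil covering sown seeds (sandy loam), as aqueous suspension or emulsion plus 0.5% additive.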

LOLRI = assay: Post-emergence action against LOLRI, 1.28 kg/ha; format: in vivo, Lolium rigidum; settings: dosage 1280 g/ha, visual rating about 3 weeks after treatment vs untreated controls
Method in brief: as §3

Structure (SMILES) | Post-emergence action at 320 g/ha against ECHCG in % (ECHCG [1]) | Post-emergence action against ABUTH in % (ABUTH [2]) | pest or weed control at 320 g/ha (DIGSA) | pest or weed control at 320 g/ha (MATIN) | pest or weed control at 320 g/ha (POLCO) | pest or weed control at 320 g/ha (AMARE [3]) | pest or weed control at 320 g/ha (VERPE) | Pre-emergence action against ECHGC in % (ECHGC) | Post-emergence action against AMARE (AMARE [4]) | Post-emergence action against PHBPU in % (PHBPU) | Post-emergence action against SETVI (SETVI) | Post-emergence action against ECHCG (ECHCG [5]) | Post-emergence action against STEME (STEME) | Pre-emergence action against MATIN in % (MATIN) | Post-emergence action against POLCO in % (POLCO) | Post-emergence action against AMARE in % (AMARE [3]) | Pre-emergence action against VERPE in % (VERPE) | Pre-emergence action against VIOTR in % (VIOTR) | Pre-emergence action against ABUTH (ABUTH [6]) | Post-emergence action against LOLRI (LOLRI) | further results
C=CCNC(=O)COc1nn(-c2ccccc2F)c(-c2ccc(F)nc2)c1Br [Example X-001, N-Allyl-2-{[4-bromo-1-(2-fluorophenyl)-5-(6-fluoropyridin-3-yl)-1H-pyrazol-3-yl]oxy}acetamide] | 80% | 80% | 80% | 90% | 80% | 80% | 80% | 100% | 90% | 80% |  |  |  |  |  |  |  |  |  |  | pest or weed control at 320 g/ha (VIOTR): 100%
COC(=O)CNC(=O)COc1nn(-c2ccccc2F)c(-c2ccc(F)nc2)c1Br [Example X-002] | 100% | 90% |  |  |  |  |  | 100% | 90% | 90% | 100% | 90% | 90% | 100% | 90% | 100% | 100% | 100% |  |  | Post-emergence action at 320 g/ha against DIGSA in % (DIGSA): 100%
COC(=O)COc1nn(-c2ccccc2F)c(-c2cncnc2)c1Br [VI-004, Methyl {[4-bromo-1-(2-fluorophenyl)-5-(pyrimidin-5-yl)-1H-pyrazol-3-yl]oxy}acetate] |  | 80% | 90% | 100% | 80% | 90% | 100% |  | 100% | 80% | 90% |  | 90% |  |  |  |  |  | 90% | 100% | pest or weed control at 1280 g/ha (ECHCG [5]; Echinochloa crus-galli, 504 h): 90%; pest or weed control at 320 g/ha (VIOTR): 100%
CCOC(=O)COc1nn(-c2ccc(F)cc2F)c(-c2ccc(F)nc2)c1Cl [VII-016] | 80% | 90% |  |  |  |  |  | 100% | 90% | 90% | 90% | 90% | 100% | 80% | 90% | 90% | 90% | 90% | 100% | 90% | 
COC(=O)COc1nn(-c2ccccc2)c(-c2ccc(F)nc2)c1Br [VII-018] |  | 80% |  |  |  |  |  | 90% |  | 90% | 100% | 90% | 100% | 90% | 90% | 90% | 100% | 90% | 90% | 90% | 
COC(=O)COc1nn(-c2ccccc2F)c(-c2ccc(F)nc2)c1F [VII-040] | 80% | 90% |  |  |  |  |  | 90% | 90% | 90% | 90% | 100% | 100% | 100% | 90% | 90% | 100% | 100% |  |  | 
